This is an account of results in PubChem BioAssay AID1996.

Converted amounts (≈) assume the structure as drawn.

For this data set the following is noted: buffer; pH 7.4; 200.0 µM.
For orientation: solubility (kinetic) means solubility judged after dilution from a stock solution rather than from solid. As for `COC(=O)c1ccc(S(=O)(=O)c2ccc([N+](=O)[O-])cc2)cc1`, the solubility (kinetic) amounted to 0.9 µg/mL (≈ 2.8 µM).

In the case of `COc1ccc(C(=O)Nc2cccc3nc(C)ccc23)cc1OC`, the solubility (kinetic) stood at 16.6 µg/mL (≈ 51.5 µM). With `O=C(O)c1cccc([N+](=O)[O-])c1C(=O)Nc1nc2ccccc2s1`, the solubility (kinetic) is above 51.5 µg/mL. Turning to `CCC(C)N(C(=O)CSc1nncn1C)C1CCS(=O)(=O)C1` (stereo not drawn), the kinetic solubility is above 52 µg/mL.

Compound `Cc1cc(C(=O)OCC(=O)NC(C)c2ccccc2)c(C)o1` (stereo not drawn) registered a solubility (kinetic) of 17.7 µg/mL (≈ 58.7 µM). In the case of `C=CCC(=O)N1CCCC(CO)(Cc2ccc(F)cc2F)C1` (stereo not drawn), the solubility (kinetic) was determined as 41.8 µg/mL (≈ 135 µM). With `CC1(C)CC(=O)C(C(O)c2ccccc2)C(C)(C)N1` (stereo not drawn) the figure was 35.2 µg/mL (≈ 135 µM). With `COc1cccc2cc(C(C)OC(=O)Nc3ccc(C)cc3)oc12` (stereo not drawn) the figure was below 0.7 µg/mL. As to `Cc1ccc(N2C(=O)CC(Sc3nccc(C)n3)C2=O)cc1` (stereo not drawn), the kinetic solubility was above 47 µg/mL. With `Cc1nnc(NN2CCOCC2)[nH]c1=O` the figure was above 31.7 µg/mL; with `CCc1ccc(C(CC(=O)O)N2Cc3ccccc3C2=O)cc1` (stereo not drawn), above 46.4 µg/mL; with `CC(=O)NC1C(Oc2ccccc2C)OC(CO)C(O)C1O` (stereo not drawn), above 46.7 µg/mL. Compound `O=C(c1cc(F)ccc1F)C1CCCN(Cc2cccc(Cl)c2)C1` (stereo not drawn) displayed a solubility (kinetic) of 2.1 µg/mL (≈ 6 µM). With `CC(=O)c1ccc(C(=O)N2CCCC(Nc3ccccc3)C2)s1` (stereo not drawn) the figure was 41.2 µg/mL (≈ 125 µM); with `CC1=NCCN1CCNC(=O)Nc1ccc(F)cc1`, above 39.6 µg/mL. On to `COc1ccc(NC(=O)c2cc(C)no2)cc1OC`, for which the solubility (kinetic) was above 39.3 µg/mL. As to `O=S(=O)(NCc1c(Cl)cccc1Oc1ccccc1)c1ccccc1`, the kinetic solubility worked out at 3 µg/mL (≈ 8.02 µM). With `CCN(CC(=O)Nc1ccc(OC)cc1)C(=O)c1ccc2ccccc2c1` the figure was 43.9 µg/mL (≈ 121 µM).

`Cc1ccc(NC(=O)CC(N)=S)cc1` registered a kinetic solubility of 30.7 µg/mL (≈ 147 µM). Compound `CC(C)CC(=O)Nc1cccc(-c2nc3ncccc3o2)c1` had a solubility (kinetic) of 31.8 µg/mL (≈ 108 µM).

As to `CC(C)c1ccc(N(C)C(=O)Cc2c(C(=O)O)n(C)c3ccccc23)cc1`, the solubility (kinetic) was above 54.7 µg/mL.

On to `CN(C)C(=O)c1cc(C(=O)c2ccc(F)cc2F)c[nH]1`, for which the kinetic solubility is above 41.7 µg/mL. Turning to `CCC(=O)c1cc(F)ccc1OCC(=O)Nc1ccc2c(c1)OCCO2`, the kinetic solubility was 6.2 µg/mL (≈ 17.3 µM). Regarding `O=C(/C=C/c1ccccc1)OCN1C(=O)c2ccccc2C1=O`, the solubility (kinetic) turned out to be 2.6 µg/mL (≈ 8.46 µM).

`c1ccc(CN2CCOCCOCCOCCOCC2)cc1` returned a kinetic solubility of 43.2 µg/mL (≈ 140 µM). With `COc1cc2c(cc1OC)-c1cc(Nc3ccccc3)nc(=O)n1CC2`, the kinetic solubility came out at 7.5 µg/mL (≈ 21.5 µM). With `O=C(CO/N=C/c1ccc(OC(F)F)cc1)NC1CCCCC1` the figure was 6.7 µg/mL (≈ 20.5 µM).

`COn1c(-c2ccc(Cl)cc2)nc2ncccc21` yielded a kinetic solubility above 39 µg/mL. With `Nc1nnc(SCc2c(F)cccc2Cl)s1` the figure was above 41.4 µg/mL. Regarding `COc1ccc(C2(C)NC(=O)N(CC3CCCCC3)C2=O)cc1` (stereo not drawn), the solubility (kinetic) was above 47.5 µg/mL.

Compound `Cc1ccc(N2CN(Cc3ccco3)CNC2=S)cc1` displayed a solubility (kinetic) of 33.8 µg/mL (≈ 118 µM).

`CCC(=O)N1CCN=C1SCc1cccc(F)c1`: the kinetic solubility is above 39.9 µg/mL. With `O=C(NC1CC1)C(Cl)c1ccccc1` (stereo not drawn) the figure was above 31.5 µg/mL; with `O=S(=O)(Nc1ccc2ccccc2n1)c1ccccc1Cl`, 3.3 µg/mL (≈ 10.4 µM); with `O=C(c1ccoc1)N1CCCC(Nc2ccc(F)c(F)c2)C1` (stereo not drawn), 44.5 µg/mL (≈ 145 µM). With `CCOCCCNCc1cc(Cl)ccc1OCC.Cl` the figure was above 46.2 µg/mL; with `CCOc1ccc(NC(=S)Nc2cccc3cnccc23)cc1`, 24.6 µg/mL (≈ 76.1 µM). With `Cc1ccc(OCc2cc(C(=O)N3CCCC3)no2)cn1` the figure was above 43.1 µg/mL; with `CC1=C(C)CC(C(=O)NCc2ccccc2F)C(C(=O)O)C1` (stereo not drawn), above 45.8 µg/mL; with `Cc1ccc(CNC(=O)Nc2ccc(F)cc2F)n1C`, above 41.9 µg/mL. As for `O=C1NC(=S)N/C1=C/c1ccc2ccccc2c1`, the solubility (kinetic) stood at 0.6 µg/mL (≈ 2.36 µM).

As to `CCN(CC)CC(=O)Nc1c(C#N)cnn1-c1ccccc1`, the kinetic solubility is above 44.6 µg/mL.

As for `Cc1ccc(C(=O)CCC(=O)N2CCC(C(N)=O)CC2)s1`, the kinetic solubility was above 46.3 µg/mL. With `COc1cccc(Nc2nc(N)c([N+](=O)[O-])c(NCc3ccco3)n2)c1` the figure was 1.2 µg/mL (≈ 3.37 µM).

Compound `Cc1cc(=O)[nH]c(SCC(=O)c2ccc(F)c(C)c2)n1` yielded a kinetic solubility above 43.8 µg/mL. `COc1ccc(NC(=O)c2coc(C)c2)cc1` yielded a kinetic solubility of 31.9 µg/mL (≈ 138 µM).

`Cc1[nH]c2ccccc2c1CC#N` gave a kinetic solubility of 21.3 µg/mL (≈ 125 µM). With `O=S(=O)(NCCC1CC1(Cl)Cl)c1ccc(Cl)cc1` (stereo not drawn) the figure was 45.9 µg/mL (≈ 140 µM). Compound `Cc1ccc(N2CN(CCC3=CCCCC3)CNC2=S)cc1` gave a kinetic solubility of 5.1 µg/mL (≈ 16.2 µM). With `CCN(C(=O)CSc1cccc[n+]1[O-])C1CCCCC1` the figure was above 44.2 µg/mL; with `Fc1ccc(CO/N=C2\CCCc3nonc32)cc1`, 3 µg/mL (≈ 11.5 µM); with `CC1=C(C(=O)Nc2ccc(C(=O)NCCC(C)C)cc2)SCCO1`, 46.3 µg/mL (≈ 133 µM).

Compound `O=C(CSc1ncccn1)Nc1ccc(Cl)c(S(=O)(=O)N2CCOCC2)c1` gave a kinetic solubility above 64.3 µg/mL.
